Laboratory results taken from patent US12281080B2, “Quinoline-based compounds and methods of inhibiting CDK8/19” (University of South Carolina, priority 2018, dated 2025).

Legend:
[1] = biological target: EGFR(L858R, T790M) (Homo sapiens (Human), UniProt P00533, L858R/T790M); experiment: KINOMEscan scanMAX; assay type: binding; conditions: 2000 nM; read-out: Percent Control
[2] = tested on: NFκB-dependent promoter in CDK8/19 deficient (double-knockout) reporter cells; experiment: NFκB-dependent luciferase reporter assay, CDK8/19 double-knockout vs wild-type 293 cells; conditions: double-knockout vs parental reporter cells
Source text: The second cell-based assay measures the effects of CDK8/19 on the expression of firefly luciferase reporter from a NFκB-dependent promoter in 293 cells.

[3] = tested on: HL60-Luc cells; experiment: HL60-Luc proliferation assay (BLI); assay type: cell-based; conditions: HL-60-Luc, 168 h; 7 days
Method: The anti-leukemic activity was also evaluated with a HL60 assay. The HL60 assay was performed by a similar procedure as MV4-11 assay. A derivative of the HL-60 leukemia cell line was generated to express Luciferase and ZsGreen by lentiviral infection with pHIV-Luc-ZsGreen, to enable leukemia growth analysis by bioluminescence imaging (BLI). The initial Luciferase-ZsGreen transduced cell population was sorted for ZsGreen positivity with fluorescence activated cell sorting and individual clones were tested for luciferase expression. […] The HL-60 assay was performed in 96-well plates by treating the HL60-Luc cells with testing compounds at different concentrations for 7 days, followed by BLI to quantify the effects of test articles on cell proliferation.

[4] = biological target: CDC2L2 (Homo sapiens (Human), UniProt Q9UQ88); experiment: KINOMEscan scanMAX; assay type: binding; conditions: 2000 nM; read-out: Percent Control
[5] = biological target: MET(M1250T) (Homo sapiens (Human), UniProt P08581, M1250T); experiment: KINOMEscan scanMAX; assay type: binding; conditions: 2000 nM; read-out: Percent Control
[6] = biological target: PRP4 (PRPF4B) (Homo sapiens (Human), UniProt Q13523); experiment: KINOMEscan scanMAX; assay type: binding; conditions: 2000 nM; read-out: Percent Control
[7] = biological target: ICK (Homo sapiens (Human), UniProt Q9UPZ9); experiment: KINOMEscan scanMAX; assay type: binding; conditions: 2000 nM; read-out: Percent Control
[8] = biological target: PKAC-beta (PRKACB) (Homo sapiens (Human), UniProt P22694); experiment: KINOMEscan scanMAX; assay type: binding; conditions: 2000 nM; read-out: Percent Control
[9] = biological target: PKNB(M.tuberculosis) (pknB) (Mycobacterium tuberculosis (strain ATCC 25618 / H37Rv), UniProt P9WI81); experiment: KINOMEscan scanMAX; assay type: binding; conditions: 2000 nM; read-out: Percent Control
[10] = biological target: PRKR (EIF2AK2) (Homo sapiens (Human), UniProt P19525); experiment: KINOMEscan scanMAX; assay type: binding; conditions: 2000 nM; read-out: Percent Control
[11] = biological target: EIF2AK1 (Homo sapiens (Human), UniProt Q9BQI3); experiment: KINOMEscan scanMAX; assay type: binding; conditions: 2000 nM; read-out: Percent Control
[12] = biological target: ABL1(F317L)-nonphosphorylated (Homo sapiens (Human), UniProt P00519, F317L); experiment: KINOMEscan scanMAX; assay type: binding; conditions: 2000 nM; read-out: Percent Control
[13] = biological target: AURKA (Homo sapiens (Human), UniProt O14965); experiment: KINOMEscan scanMAX; assay type: binding; conditions: 2000 nM; read-out: Percent Control
[14] = biological target: OSR1 (OXSR1) (Homo sapiens (Human), UniProt O95747); experiment: KINOMEscan scanMAX; assay type: binding; conditions: 2000 nM; read-out: Percent Control
[15] = biological target: AKT3 (Homo sapiens (Human), UniProt Q9Y243); experiment: KINOMEscan scanMAX; assay type: binding; conditions: 2000 nM; read-out: Percent Control
[16] = biological target: HIPK4 (Homo sapiens (Human), UniProt Q8NE63); experiment: KINOMEscan scanMAX; assay type: binding; conditions: 2000 nM; read-out: Percent Control
[17] = biological target: FLT3(R834Q) (Homo sapiens (Human), UniProt P36888, R834Q); experiment: KINOMEscan scanMAX; assay type: binding; conditions: 2000 nM; read-out: Percent Control
[18] = biological target: MST3 (STK24) (Homo sapiens (Human), UniProt Q9Y6E0); experiment: KINOMEscan scanMAX; assay type: binding; conditions: 2000 nM; read-out: Percent Control
[19] = biological target: DDR1 (Homo sapiens (Human), UniProt Q08345); experiment: KINOMEscan scanMAX; assay type: binding; conditions: 2000 nM; read-out: Percent Control
[20] = biological target: PHKG2 (Homo sapiens (Human), UniProt P15735); experiment: KINOMEscan scanMAX; assay type: binding; conditions: 2000 nM; read-out: Percent Control
[21] = biological target: SIK (SIK1) (Homo sapiens (Human), UniProt P57059); experiment: KINOMEscan scanMAX; assay type: binding; conditions: 2000 nM; read-out: Percent Control
[22] = biological target: TYK2(JH2domain-pseudokinase) (Homo sapiens (Human), UniProt P29597); experiment: KINOMEscan scanMAX; assay type: binding; conditions: 2000 nM; read-out: Percent Control
[23] = biological target: YES (YES1) (Homo sapiens (Human), UniProt P07947); experiment: KINOMEscan scanMAX; assay type: binding; conditions: 2000 nM; read-out: Percent Control
[24] = biological target: CDKL1 (Homo sapiens (Human), UniProt Q00532); experiment: KINOMEscan scanMAX; assay type: binding; conditions: 2000 nM; read-out: Percent Control
[25] = biological target: ERK3 (MAPK6) (Homo sapiens (Human), UniProt Q16659); experiment: KINOMEscan scanMAX; assay type: binding; conditions: 2000 nM; read-out: Percent Control
[26] = biological target: PRKCD (Homo sapiens (Human), UniProt Q05655); experiment: KINOMEscan scanMAX; assay type: binding; conditions: 2000 nM; read-out: Percent Control
[27] = biological target: VPS34 (PIK3C3) (Homo sapiens (Human), UniProt Q8NEB9); experiment: KINOMEscan scanMAX; assay type: binding; conditions: 2000 nM; read-out: Percent Control
[28] = Mouse pharmacokinetics, oral, serum; assay type: in vivo, mice
Method: To measure pharmacokinetics (PK), Senexin C dissolved in 5% Dextrose was administered orally (p.o.) to female FVB mice at 30 mg/kg. Blood samples were collected at different time points (5 mice per time point) and Senexin C concentration in the serum was measured by LC/MS/MS.

[29] = biological target: CHEK2 (Homo sapiens (Human), UniProt O96017); experiment: KINOMEscan scanMAX; assay type: binding; conditions: 2000 nM; read-out: Percent Control
[30] = tested on: MV4-11 cells; experiment: MV4-11-Luc proliferation assay (BLI); assay type: cell-based; conditions: Homo sapiens, MV4-11, 168 h; 7 days
Method: The anti-leukemic activity was evaluated with a MV4-11 assay. The population of MV4-11 cells, which depend on CDK8/19 for their proliferation, was made to express Luciferase and ZsGreen by lenvtiral infection with pHIV-Luc-ZsGreen, to enable leukemia growth analysis by bioluminescence imaging (BLI). The initial Luciferase-ZsGreen transduced cell population was sorted for ZsGreen positivity with fluorescence activated cell sorting. The MV4-11 assay was performed in 96-well plates by treating the MV4-11-Luc cells with testing compounds at different concentrations for 7 days, followed by BLI to quantify the effects of test articles on cell proliferation.

PRKR (EIF2AK2), sequence (P19525 whole entry): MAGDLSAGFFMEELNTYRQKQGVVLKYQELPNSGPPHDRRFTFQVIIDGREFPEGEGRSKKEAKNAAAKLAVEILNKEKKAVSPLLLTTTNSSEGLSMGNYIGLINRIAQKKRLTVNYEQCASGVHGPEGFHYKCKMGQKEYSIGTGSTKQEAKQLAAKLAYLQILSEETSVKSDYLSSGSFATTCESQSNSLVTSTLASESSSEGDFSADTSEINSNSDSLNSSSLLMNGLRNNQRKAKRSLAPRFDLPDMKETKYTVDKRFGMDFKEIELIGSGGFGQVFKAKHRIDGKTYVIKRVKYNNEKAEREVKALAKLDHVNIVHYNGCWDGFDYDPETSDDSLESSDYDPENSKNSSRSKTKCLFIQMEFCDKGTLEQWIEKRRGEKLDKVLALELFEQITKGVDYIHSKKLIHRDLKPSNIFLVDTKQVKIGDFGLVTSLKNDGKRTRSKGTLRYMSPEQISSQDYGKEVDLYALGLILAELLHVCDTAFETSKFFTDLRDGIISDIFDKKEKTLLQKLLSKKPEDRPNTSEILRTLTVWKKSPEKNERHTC
MET(M1250T), sequence (P08581 25-1390 M1250T): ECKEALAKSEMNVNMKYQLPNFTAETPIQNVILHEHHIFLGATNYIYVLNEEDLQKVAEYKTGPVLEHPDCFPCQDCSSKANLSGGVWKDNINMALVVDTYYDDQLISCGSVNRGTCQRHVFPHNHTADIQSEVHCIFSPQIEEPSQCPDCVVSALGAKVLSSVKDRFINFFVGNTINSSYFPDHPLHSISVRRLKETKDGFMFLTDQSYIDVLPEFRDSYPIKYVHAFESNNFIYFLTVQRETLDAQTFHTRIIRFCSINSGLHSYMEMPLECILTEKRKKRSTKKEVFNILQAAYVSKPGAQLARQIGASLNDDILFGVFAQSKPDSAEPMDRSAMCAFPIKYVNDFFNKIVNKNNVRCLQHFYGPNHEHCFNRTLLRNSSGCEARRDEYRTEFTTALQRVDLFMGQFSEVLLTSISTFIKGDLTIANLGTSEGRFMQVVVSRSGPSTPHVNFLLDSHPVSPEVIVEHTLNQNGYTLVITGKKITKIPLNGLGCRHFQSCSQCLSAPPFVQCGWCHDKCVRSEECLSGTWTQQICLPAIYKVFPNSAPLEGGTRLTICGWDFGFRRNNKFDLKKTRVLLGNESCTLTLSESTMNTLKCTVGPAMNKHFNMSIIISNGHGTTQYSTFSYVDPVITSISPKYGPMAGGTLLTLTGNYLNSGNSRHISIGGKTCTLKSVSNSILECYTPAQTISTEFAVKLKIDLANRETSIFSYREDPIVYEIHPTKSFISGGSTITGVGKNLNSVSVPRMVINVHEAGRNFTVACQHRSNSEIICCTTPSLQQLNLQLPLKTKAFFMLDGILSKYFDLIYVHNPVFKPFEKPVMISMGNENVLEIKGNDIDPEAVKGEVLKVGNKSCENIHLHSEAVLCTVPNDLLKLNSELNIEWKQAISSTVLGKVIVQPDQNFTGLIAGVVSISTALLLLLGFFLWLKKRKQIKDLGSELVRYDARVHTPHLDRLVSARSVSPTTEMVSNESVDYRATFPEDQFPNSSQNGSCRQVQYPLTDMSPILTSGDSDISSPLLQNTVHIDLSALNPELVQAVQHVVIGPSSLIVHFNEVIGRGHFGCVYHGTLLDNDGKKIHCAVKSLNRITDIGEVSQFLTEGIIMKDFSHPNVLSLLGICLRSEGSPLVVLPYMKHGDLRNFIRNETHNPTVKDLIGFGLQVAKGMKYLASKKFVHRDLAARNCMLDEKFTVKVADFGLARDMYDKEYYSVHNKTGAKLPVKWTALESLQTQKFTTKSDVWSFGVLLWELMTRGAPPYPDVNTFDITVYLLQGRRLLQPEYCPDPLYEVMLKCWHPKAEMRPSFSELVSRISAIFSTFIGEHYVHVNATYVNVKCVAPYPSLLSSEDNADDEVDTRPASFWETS
ABL1(F317L)-nonphosphorylated, sequence (P00519 whole entry F317L): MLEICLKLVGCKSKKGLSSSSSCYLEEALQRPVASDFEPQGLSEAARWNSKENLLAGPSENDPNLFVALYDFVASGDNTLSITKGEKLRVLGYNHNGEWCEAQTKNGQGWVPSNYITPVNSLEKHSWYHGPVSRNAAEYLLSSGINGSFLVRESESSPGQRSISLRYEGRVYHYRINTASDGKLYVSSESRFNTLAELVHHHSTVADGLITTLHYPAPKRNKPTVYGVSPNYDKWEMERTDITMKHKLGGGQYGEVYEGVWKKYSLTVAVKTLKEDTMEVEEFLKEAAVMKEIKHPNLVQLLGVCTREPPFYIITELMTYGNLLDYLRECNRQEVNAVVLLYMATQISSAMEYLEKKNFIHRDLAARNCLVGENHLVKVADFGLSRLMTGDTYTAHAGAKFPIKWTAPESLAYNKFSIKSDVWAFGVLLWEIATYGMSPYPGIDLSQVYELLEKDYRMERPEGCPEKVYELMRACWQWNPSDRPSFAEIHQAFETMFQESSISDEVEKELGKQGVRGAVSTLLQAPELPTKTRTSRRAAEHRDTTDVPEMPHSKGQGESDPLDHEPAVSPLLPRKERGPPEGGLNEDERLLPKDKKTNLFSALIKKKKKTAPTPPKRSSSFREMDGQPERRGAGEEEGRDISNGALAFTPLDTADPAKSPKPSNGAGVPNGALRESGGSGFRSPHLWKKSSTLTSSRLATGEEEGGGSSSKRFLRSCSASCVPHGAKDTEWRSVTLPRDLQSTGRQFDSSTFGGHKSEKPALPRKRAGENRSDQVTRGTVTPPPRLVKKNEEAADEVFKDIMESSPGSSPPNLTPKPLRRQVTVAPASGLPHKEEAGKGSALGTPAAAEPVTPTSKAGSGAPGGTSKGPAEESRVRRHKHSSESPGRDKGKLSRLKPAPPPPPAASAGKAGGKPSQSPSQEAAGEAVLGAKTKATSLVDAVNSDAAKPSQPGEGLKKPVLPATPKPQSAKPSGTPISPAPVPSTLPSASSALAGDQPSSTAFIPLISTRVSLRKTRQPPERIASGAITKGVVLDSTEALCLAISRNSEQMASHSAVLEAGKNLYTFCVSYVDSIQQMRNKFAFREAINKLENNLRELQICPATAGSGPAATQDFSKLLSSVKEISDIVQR
EGFR(L858R, T790M), sequence (P00533 25-1210 T790M/L858R): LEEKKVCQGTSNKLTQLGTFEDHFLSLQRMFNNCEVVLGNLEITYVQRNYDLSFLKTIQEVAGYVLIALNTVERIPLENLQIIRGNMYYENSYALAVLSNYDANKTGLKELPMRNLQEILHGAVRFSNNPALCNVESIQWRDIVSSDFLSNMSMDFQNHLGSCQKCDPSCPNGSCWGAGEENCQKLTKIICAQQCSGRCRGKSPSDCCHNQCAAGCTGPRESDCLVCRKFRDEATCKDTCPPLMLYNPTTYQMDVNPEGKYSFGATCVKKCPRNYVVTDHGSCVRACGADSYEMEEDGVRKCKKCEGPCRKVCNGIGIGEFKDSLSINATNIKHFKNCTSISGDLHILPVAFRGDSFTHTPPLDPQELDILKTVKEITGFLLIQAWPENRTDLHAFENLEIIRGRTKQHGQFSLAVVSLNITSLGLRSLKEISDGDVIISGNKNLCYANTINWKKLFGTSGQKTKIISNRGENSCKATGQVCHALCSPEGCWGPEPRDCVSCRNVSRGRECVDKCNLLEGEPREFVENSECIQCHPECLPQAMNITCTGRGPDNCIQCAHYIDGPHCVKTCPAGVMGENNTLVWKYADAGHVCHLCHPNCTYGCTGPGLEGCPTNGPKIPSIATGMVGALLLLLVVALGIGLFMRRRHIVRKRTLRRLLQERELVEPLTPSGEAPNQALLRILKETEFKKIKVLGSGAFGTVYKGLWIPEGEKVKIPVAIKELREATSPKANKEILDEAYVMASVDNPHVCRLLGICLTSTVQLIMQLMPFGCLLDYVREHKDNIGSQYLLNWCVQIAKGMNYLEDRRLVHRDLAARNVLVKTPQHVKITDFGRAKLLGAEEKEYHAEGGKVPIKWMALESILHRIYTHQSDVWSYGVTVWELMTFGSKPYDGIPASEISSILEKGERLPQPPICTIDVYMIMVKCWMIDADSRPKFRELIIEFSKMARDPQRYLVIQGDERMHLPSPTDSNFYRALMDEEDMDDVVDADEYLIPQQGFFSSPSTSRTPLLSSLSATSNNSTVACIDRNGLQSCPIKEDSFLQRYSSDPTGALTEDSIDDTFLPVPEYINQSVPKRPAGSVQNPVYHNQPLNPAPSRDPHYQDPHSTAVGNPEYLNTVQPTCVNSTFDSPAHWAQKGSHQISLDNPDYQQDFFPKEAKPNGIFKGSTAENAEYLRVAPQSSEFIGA
VPS34 (PIK3C3), sequence (Q8NEB9 whole entry): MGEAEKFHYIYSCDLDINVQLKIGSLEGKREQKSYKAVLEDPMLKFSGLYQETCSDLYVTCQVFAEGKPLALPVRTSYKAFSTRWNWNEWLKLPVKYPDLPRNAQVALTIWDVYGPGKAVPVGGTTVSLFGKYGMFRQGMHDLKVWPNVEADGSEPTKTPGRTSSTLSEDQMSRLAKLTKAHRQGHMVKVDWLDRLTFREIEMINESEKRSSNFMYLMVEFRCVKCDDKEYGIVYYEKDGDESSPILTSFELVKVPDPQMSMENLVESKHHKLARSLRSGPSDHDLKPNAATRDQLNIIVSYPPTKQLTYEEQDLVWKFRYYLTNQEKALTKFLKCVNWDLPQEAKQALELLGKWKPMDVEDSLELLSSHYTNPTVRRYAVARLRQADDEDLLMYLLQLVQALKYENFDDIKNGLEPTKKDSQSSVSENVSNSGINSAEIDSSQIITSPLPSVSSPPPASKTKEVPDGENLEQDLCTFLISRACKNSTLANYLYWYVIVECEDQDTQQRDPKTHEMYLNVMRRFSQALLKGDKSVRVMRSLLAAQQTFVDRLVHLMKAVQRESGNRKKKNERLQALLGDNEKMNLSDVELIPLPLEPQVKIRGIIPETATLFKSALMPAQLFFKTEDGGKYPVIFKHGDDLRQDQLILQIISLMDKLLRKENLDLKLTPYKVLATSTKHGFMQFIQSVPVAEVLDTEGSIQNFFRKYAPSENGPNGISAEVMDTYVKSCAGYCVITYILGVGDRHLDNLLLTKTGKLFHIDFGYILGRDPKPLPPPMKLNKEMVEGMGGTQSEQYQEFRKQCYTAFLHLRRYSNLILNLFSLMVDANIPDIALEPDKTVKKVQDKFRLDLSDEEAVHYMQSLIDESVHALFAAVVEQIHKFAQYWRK

CN1CCN(C(=O)c2ccc3cc(CCNc4ccnc5ccc(C#N)cc45)ccc3c2)CC1 [compound 6148, 4-((2-(6-(4-methylpiperazine-1-carbonyl)naphthalen-2-yl)ethyl)amino)quinoline-6-carbonitrile]
remaining binding at 2 µM [1]: 82% | IC50 in CDK8/19-deficient cells relative to wild-type cells [2]: > 50 times | IC50 [3]: 114 nM | remaining binding at 2 µM [4]: 97% | remaining binding at 2 µM [5]: 88% | remaining binding at 2 µM [6]: 71% | remaining binding at 2 µM [7]: 54% | remaining binding at 2 µM [8]: 100% | remaining binding at 2 µM [9]: 93% | remaining binding at 2 µM [10]: 88% | remaining binding at 2 µM [11]: 84% | remaining binding at 2 µM [12]: 93% | remaining binding at 2 µM [13]: 88% | remaining binding at 2 µM [14]: 51% | remaining binding at 2 µM [15]: 100% | remaining binding at 2 µM [16]: 75% | remaining binding at 2 µM [17]: 70% | remaining binding at 2 µM [18]: 100% | remaining binding at 2 µM [19]: 100% | remaining binding at 2 µM [20]: 100% | remaining binding at 2 µM [21]: 91% | remaining binding at 2 µM [22]: 63% | remaining binding at 2 µM [23]: 100% | remaining binding at 2 µM [24]: 94% | remaining binding at 2 µM [25]: 89% | remaining binding at 2 µM [26]: 83% | remaining binding at 2 µM [27]: 68% | Increase of half-time, oral vs i.p. ([28]; female, FVB, mouse, in vivo): 4-5 times | half-time ([28]; p.o. 30 mg/kg, female FVB mice): 3.8 h | remaining binding at 2 µM [29]: 98% | IC50 [30]: 117 nM
